Values joined by “and” are separate entries in the source; they are usually repeats but may differ in a detail not shown here. Equal values may be shown once. “Also recorded” adds a separate entry of the source. Read-outs that look alike come from different tables or passages of the source.
What was measured:
HyNaC2/3/7 [1] = molecular target: T1, HyNaC2/3/7 (Hydra vulgaris (Hydra magnipapillata), UniProt A0A0A0MP73+A8DZR6+A8DZR7); experiment: Inhibition of HyNaC2/3/7 currents in Xenopus oocytes (TEVC); assay type: cell-based; conditions: read-out: IAmil/I, relative current remaining after block by 100 μM amiloride
Procedure: (§1) One of the hallmarks of DEG/ENaCs is the block by the diuretic amiloride.
(§2) Figure 10 Diminazene is a potent inhibitor of HyNaCs. A) Current trace illustrating the concentration-dependent inhibition of HyNaC2/9/7 by diminazene. Block by 100 μM amiloride was used to compare the affinity for diminazene and amiloride. […] Dashed lines represent the zero current level. B) Concentration-response curves showing the concentration-dependent inhibition of HyNaCs by diminazene. HyNaCs, Hydra Na^+ channels.
(§3) To study the biophysical properties of the new HyNaCs, cRNA of HyNaCs was synthesized in vitro (mMessage mMachine kit, Ambion, Austin, Texas, USA) and injected into Xenopus laevis oocytes of stage V and VI. […] Whole cell currents were recorded from defolliculated oocytes by two-electrode voltage-clamp (TEVC) using the amplifier TurboTec 03X (npi electronic GmbH, Tamm, Germany). […]
(§4) EC50 values for Hydra-RFamides I and II as well as IC50 values for diminazene were determined by fits to the Hill equation using IGOR Pro (version 6.06, WaveMetrics, Inc.). Reversal potentials were defined as the first recorded data point, where currents reversed signs from negative to positive. […]

HyNaC2/3/6 [2] = molecular target: T2, HyNaC2/3/6 (Hydra vulgaris (Hydra magnipapillata), UniProt A0A0A0MP54+A8DZR6+A8DZR7); experiment: Inhibition of HyNaC2/3/6 currents in Xenopus oocytes (TEVC); assay type: cell-based; conditions: read-out: IAmil/I, relative current remaining after block by 100 μM amiloride
Procedure: as §1, §2, §3, §4

HyNaC2/3/5 [3] = molecular target: T3, HyNaC2/3/5 (Hydra vulgaris (Hydra magnipapillata), UniProt A8DZR6+A8DZR7+D3UD58); experiment: Inhibition of HyNaC2/3/5 currents in Xenopus oocytes (TEVC); assay type: cell-based; conditions: read-out: IAmil/I, relative current remaining after block by 100 μM amiloride
Procedure: as §1, §2, §3, §4

HyNaC2/3/5 [4] = molecular target: T3, HyNaC2/3/5; design: method as in PMID 20159980; conditions: ref [4], read-out: IC50 (apparent amiloride affinity); cited from earlier work
HyNaC2/4/6 [5] = molecular target: T4, HyNaC2/4/6 (Hydra vulgaris (Hydra magnipapillata), UniProt A0A0A0MP54+A8DZR6+A8DZR8); experiment: Inhibition of HyNaC2/4/6 currents in Xenopus oocytes (TEVC); assay type: cell-based; conditions: read-out: IAmil/I, relative current remaining after block by 100 μM amiloride
Procedure: as §1, §2, §3, §4

Hydra magnipapillata = test system: Hydra magnipapillata; design: method as in PMID 20159980; conditions: 100 μM amiloride; ref [4]; cited from earlier work
HyNaC2/9/7 [6] = molecular target: T5, HyNaC2/9/7 (Hydra vulgaris (Hydra magnipapillata), UniProt A0A0A0MP48+A0A0A0MP73+A8DZR6); experiment: Inhibition of HyNaC2/9/7 currents in Xenopus oocytes (TEVC); assay type: cell-based; conditions: read-out: IAmil/I, relative current remaining after block by 100 μM amiloride
Procedure: as §1, §2, §3, §4

HyNaC2/11/5 [7] = molecular target: T6, HyNaC2/11/5 (Hydra vulgaris (Hydra magnipapillata), UniProt A0A0A0MP55+A8DZR6+D3UD58); experiment: Inhibition of HyNaC2/11/5 currents in Xenopus oocytes (TEVC); assay type: cell-based; conditions: read-out: IAmil/I, relative current remaining after block by 100 μM amiloride
Procedure: as §1, §2, §3, §4

HyNaC2/10/7 [8] = molecular target: T7, HyNaC2/10/7 (Hydra vulgaris (Hydra magnipapillata), UniProt A0A0A0MP61+A0A0A0MP73+A8DZR6); experiment: Inhibition of HyNaC2/10/7 currents in Xenopus oocytes (TEVC); assay type: cell-based; conditions: read-out: IAmil/I, relative current remaining after block by 100 μM amiloride
Procedure: as §1, §2, §3, §4

HyNaC2/3/5 [9] = molecular target: T3, HyNaC2/3/5; experiment: Activation of HyNaC2/3/5 expressed in Xenopus oocytes by Hydra-RFamides (TEVC); assay type: cell-based
Procedure: (§5) To study the biophysical properties of the new HyNaCs, cRNA of HyNaCs was synthesized in vitro (mMessage mMachine kit, Ambion, Austin, Texas, USA) and injected into Xenopus laevis oocytes of stage V and VI. After injection, oocytes were incubated for one to two days at 19°C in oocyte Ringer’s solution 2 (OR-2), which contained (in mM): 82.5 NaCl, 2.5 KCl, 1.0 Na2HPO4, 1.0 MgCl2, 1.0 CaCl2, 5.0 HEPES, 0.5 g/l PVP, 1,000 U/l penicillin and 10 mg/l streptomycin, NaOH was used to adjust pH to 7.3. Whole cell currents were recorded from defolliculated oocytes by two-electrode voltage-clamp (TEVC) using the amplifier TurboTec 03X (npi electronic GmbH, Tamm, Germany). Standard bath solution (in mM: 140 NaCl, 10 HEPES, 1.8 CaCl2 and 1.0 MgCl2. NaOH was used to adjust pH to 7.4.) was exchanged by a pump driven system combined with the oocyte testing carousel (OTC), which was controlled by the interface OTC-20 [53]. To control the OTC-20 and to record the data to the hard drive, the software CellWorks (version 5.1.1; npi electronic GmbH, Tamm, Germany) was used. Data were sampled at 0.1 to 1 kHz and filtered at 20 Hz. HyNaCs are permeable for Ca^2+, activating an endogenous CaCC [40]. Therefore, unless otherwise indicated, oocytes were injected with 50 nl of 20 mM EGTA 30 to 180 minutes before measurements. Reversal potentials and Ca^2+ permeabilities of HyNaCs were studied as described previously.
(§6) EC50 values for Hydra-RFamides I and II as well as IC50 values for diminazene were determined by fits to the Hill equation using IGOR Pro (version 6.06, WaveMetrics, Inc.). Reversal potentials were defined as the first recorded data point, where currents reversed signs from negative to positive. For I/V relationships, voltage ramps in the absence of the agonist were used to subtract background conductances. Results are reported as mean ± standard error.

HyNaC2/4/6 [10] = molecular target: T4, HyNaC2/4/6; experiment: Activation of HyNaC2/4/6 expressed in Xenopus oocytes by Hydra-RFamides (TEVC); assay type: cell-based
Procedure: as §5, §6

HyNaC2/3/7 [11] = molecular target: T1, HyNaC2/3/7; experiment: Activation of HyNaC2/3/7 expressed in Xenopus oocytes by Hydra-RFamides (TEVC); assay type: cell-based
Procedure: as §5, §6

HyNaC2/10/7 [12] = molecular target: T7, HyNaC2/10/7; experiment: Activation of HyNaC2/10/7 expressed in Xenopus oocytes by Hydra-RFamides (TEVC); assay type: cell-based; conditions: EGTA-injected oocytes, saturating ligand concentration not reached
Procedure: as §5, §6

HyNaC2/3/5 [13] = molecular target: T3, HyNaC2/3/5; design: method as in PMID 20159980; conditions: for comparison, ref [4], read-out: EC50 for Hydra-RFamide I; cited from earlier work
HyNaC2/9/7 [14] = molecular target: T5, HyNaC2/9/7; experiment: Activation of HyNaC2/9/7 expressed in Xenopus oocytes by Hydra-RFamides (TEVC); assay type: cell-based
Procedure: as §5, §6

[15] = test system: HyNaCs containing HyNaC12; experiment: Activation of HyNaC12-containing subunit combinations in Xenopus oocytes by Hydra-RFamides; assay type: cell-based, Hydra magnipapillata; conditions: HyNaC12 co-expressed with HyNaC2 and other HyNaCs or pools; 5 μM peptide
Procedure: The contribution of the distantly related HyNaC12 to peptide-gated channels was assessed by co-expression with HyNaC2 and one or several other HyNaCs (HyNaC3 to HyNaC11). In addition, HyNaC12 was co-expressed with pools of different HyNaCs without HyNaC2. […] In fact, all HyNaCs that were activated by Hydra-RFamide I were opened by lowering the extracellular Ca^2+ concentration ([Ca^2+]e) to 10 nM (Figure 4). […] Some DEG/ENaCs are constitutively opened by an amino acid substitution at the so-called DEG-position. To further investigate whether HyNaC12 forms a functional homomeric channel, we substituted a glycine at the DEG-position by threonine (G436T), which has a large side chain. This substitution did, however, not constitutively open HyNaC12 (data not shown). This applies also for the co-expression of HyNaC12-G436T together with pools of different wild-type HyNaC subunits, leaving the function of HyNaC12 unknown. […]
as §3

HyNaC2/11/5 [16] = molecular target: T6, HyNaC2/11/5; experiment: Activation of HyNaC2/11/5 expressed in Xenopus oocytes by Hydra-RFamides (TEVC); assay type: cell-based
Procedure: as §5, §6

HyNaC2/3/6 [17] = molecular target: T2, HyNaC2/3/6; experiment: Activation of HyNaC2/3/6 expressed in Xenopus oocytes by Hydra-RFamides (TEVC); assay type: cell-based
Procedure: as §5, §6

[18] = test system: functional HyNaC heterotrimer; experiment: Screen of functional HyNaC heterotrimers in Xenopus oocytes for activation by Hydra-RFamides; assay type: cell-based, Hydra magnipapillata; conditions: 5 μM peptide; Xenopus oocytes
Procedure: We tested the function of the new HyNaCs by co-expression of different HyNaC subunit combinations in Xenopus oocytes. We screened for functional subunit combinations by application of 5 μM Hydra-RFamide I, a potent agonist of HyNaC2/3/5 [4]. When we expressed an individual HyNaC subunit we could never elicit currents. […] When HyNaC2 was part of the injected cRNA pool, however, Hydra-RFamide I elicited currents. Simultaneous expression of HyNaC2 with a single other HyNaC resulted only in a functional channel when we co-expressed HyNaC2 and HyNaC3; it was already known that HyNaC2 and HyNaC3 form a low-affinity peptide-gated channel.
Dashed line represents the zero current level. Amino acid sequences of Hydra-RFamides I to V are shown at the bottom. HyNaC, Hydra Na^+ channel.
Since Hydra-RFamide II had been shown previously to activate HyNaC2/3/5 [4], we tested Hydra-RFamides II to V for channel activation.
as §5

HyNaC2/9/5 = experiment: Activation of HyNaC2/9/5 in Xenopus oocytes by Hydra-RFamides; assay type: cell-based, Hydra magnipapillata; conditions: channel opened by lowering extracellular Ca2+
Procedure: The contribution of the distantly related HyNaC12 to peptide-gated channels was assessed by co-expression with HyNaC2 and one or several other HyNaCs (HyNaC3 to HyNaC11). In addition, HyNaC12 was co-expressed with pools of different HyNaCs without HyNaC2. […] In fact, all HyNaCs that were activated by Hydra-RFamide I were opened by lowering the extracellular Ca^2+ concentration ([Ca^2+]e) to 10 nM (Figure 4). […] Some DEG/ENaCs are constitutively opened by an amino acid substitution at the so-called DEG-position. To further investigate whether HyNaC12 forms a functional homomeric channel, we substituted a glycine at the DEG-position by threonine (G436T), which has a large side chain. This substitution did, however, not constitutively open HyNaC12 (data not shown). This applies also for the co-expression of HyNaC12-G436T together with pools of different wild-type HyNaC subunits, leaving the function of HyNaC12 unknown.
as §3

[19] = EGTA-injected oocytes, read-out: EC50 RFa I
[20] = Hydra-RFamide I concentration-response

T1 sequence (A8DZR7 entry or part of it): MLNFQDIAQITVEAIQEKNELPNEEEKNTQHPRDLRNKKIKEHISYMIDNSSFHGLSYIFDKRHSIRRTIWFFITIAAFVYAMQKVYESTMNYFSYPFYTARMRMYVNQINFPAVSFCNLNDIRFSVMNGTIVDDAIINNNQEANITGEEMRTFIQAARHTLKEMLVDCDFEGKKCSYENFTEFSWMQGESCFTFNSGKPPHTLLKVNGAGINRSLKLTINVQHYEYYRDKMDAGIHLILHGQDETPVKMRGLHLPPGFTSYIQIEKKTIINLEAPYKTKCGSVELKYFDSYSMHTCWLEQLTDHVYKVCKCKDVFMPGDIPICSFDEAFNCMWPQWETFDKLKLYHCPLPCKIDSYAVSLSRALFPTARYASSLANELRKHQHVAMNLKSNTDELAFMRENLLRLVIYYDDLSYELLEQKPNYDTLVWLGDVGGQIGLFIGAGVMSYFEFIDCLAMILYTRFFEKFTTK
T1 sequence (A0A0A0MP73 entry or part of it): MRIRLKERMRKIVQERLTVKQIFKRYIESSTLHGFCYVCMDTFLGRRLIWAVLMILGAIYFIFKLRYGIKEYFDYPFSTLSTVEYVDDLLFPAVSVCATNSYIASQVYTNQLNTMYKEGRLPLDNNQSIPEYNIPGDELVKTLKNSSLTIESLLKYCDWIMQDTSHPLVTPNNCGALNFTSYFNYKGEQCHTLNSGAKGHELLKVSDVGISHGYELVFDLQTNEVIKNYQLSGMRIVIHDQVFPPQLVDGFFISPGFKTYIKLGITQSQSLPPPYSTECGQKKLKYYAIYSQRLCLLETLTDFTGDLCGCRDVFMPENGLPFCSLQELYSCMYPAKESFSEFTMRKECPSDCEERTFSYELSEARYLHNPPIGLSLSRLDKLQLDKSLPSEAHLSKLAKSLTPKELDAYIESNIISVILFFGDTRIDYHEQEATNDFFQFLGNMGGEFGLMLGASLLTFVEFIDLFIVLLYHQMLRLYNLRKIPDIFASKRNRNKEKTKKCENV
T1 sequence (A8DZR6 entry or part of it): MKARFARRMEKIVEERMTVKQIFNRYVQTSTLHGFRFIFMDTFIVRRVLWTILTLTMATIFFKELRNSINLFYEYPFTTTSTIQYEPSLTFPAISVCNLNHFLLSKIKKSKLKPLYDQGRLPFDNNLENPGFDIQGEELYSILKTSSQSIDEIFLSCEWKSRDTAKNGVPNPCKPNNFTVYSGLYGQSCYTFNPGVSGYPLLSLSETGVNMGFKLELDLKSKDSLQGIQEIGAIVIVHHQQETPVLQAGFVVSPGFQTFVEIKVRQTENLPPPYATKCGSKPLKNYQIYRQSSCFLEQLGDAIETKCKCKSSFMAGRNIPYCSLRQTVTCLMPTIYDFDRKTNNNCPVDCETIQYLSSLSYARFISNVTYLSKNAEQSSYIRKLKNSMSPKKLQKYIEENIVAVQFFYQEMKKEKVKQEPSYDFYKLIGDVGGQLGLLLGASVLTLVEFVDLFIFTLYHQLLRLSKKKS
T4 sequence (A8DZR8 entry or part of it): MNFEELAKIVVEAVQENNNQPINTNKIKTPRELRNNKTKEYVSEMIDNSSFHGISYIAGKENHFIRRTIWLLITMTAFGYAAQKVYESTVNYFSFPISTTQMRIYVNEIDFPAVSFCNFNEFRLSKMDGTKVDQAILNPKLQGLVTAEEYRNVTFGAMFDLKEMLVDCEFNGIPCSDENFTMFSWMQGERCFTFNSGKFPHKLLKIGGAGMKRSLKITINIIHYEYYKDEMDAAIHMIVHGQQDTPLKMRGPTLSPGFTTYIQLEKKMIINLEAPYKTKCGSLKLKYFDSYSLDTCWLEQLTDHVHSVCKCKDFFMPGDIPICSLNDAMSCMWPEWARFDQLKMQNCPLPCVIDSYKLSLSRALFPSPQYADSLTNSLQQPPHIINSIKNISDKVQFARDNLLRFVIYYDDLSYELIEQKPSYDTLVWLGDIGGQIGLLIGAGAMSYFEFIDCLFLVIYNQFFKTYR
T4 sequence (A0A0A0MP54 entry or part of it): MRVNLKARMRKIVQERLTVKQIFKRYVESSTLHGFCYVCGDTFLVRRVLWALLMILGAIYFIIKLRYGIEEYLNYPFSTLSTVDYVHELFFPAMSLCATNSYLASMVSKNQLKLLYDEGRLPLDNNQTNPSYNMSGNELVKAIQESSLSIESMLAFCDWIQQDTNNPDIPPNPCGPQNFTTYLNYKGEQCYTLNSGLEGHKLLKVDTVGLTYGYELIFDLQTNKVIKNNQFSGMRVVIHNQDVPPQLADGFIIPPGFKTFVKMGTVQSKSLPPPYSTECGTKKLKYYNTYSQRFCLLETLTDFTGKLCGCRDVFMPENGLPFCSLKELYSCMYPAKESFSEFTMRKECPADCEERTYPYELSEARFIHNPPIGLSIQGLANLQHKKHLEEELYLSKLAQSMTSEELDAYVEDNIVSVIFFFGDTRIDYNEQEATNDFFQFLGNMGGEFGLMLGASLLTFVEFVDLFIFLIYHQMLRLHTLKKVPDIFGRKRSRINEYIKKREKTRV
T4 sequence (A8DZR6 entry or part of it): as the sequence (A8DZR6 entry or part of it) above
T3 sequence (A8DZR6 entry or part of it): as above
T3 sequence (D3UD58 entry or part of it): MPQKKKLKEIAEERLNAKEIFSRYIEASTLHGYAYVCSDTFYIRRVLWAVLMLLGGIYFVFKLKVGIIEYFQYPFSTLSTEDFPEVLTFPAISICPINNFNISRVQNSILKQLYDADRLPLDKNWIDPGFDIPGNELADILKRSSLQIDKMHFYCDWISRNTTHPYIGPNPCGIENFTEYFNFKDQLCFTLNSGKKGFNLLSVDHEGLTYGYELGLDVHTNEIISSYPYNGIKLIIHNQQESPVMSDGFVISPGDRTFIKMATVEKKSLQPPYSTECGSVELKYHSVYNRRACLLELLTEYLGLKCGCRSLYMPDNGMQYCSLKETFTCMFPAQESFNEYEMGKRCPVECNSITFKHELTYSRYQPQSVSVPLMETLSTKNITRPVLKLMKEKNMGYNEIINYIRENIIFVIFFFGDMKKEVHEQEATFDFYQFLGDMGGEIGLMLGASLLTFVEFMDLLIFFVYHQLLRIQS
T3 sequence (A8DZR7 entry or part of it): as the sequence (A8DZR7 entry or part of it) above
T6 sequence (A0A0A0MP55 entry or part of it): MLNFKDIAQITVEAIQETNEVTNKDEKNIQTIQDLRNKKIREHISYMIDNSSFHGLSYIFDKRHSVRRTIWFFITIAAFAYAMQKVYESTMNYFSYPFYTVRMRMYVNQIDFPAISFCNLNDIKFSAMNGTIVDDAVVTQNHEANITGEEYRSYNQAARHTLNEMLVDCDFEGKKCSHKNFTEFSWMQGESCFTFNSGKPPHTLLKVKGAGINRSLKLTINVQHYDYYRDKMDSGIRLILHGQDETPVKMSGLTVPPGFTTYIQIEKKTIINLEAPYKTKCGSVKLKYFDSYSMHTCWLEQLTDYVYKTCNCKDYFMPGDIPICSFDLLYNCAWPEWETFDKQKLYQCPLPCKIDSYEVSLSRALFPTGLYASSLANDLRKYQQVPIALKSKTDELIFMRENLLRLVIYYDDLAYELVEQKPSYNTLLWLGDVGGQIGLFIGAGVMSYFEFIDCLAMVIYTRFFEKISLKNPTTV
T6 sequence (A8DZR6 entry or part of it): as the sequence (A8DZR6 entry or part of it) above
T6 sequence (D3UD58 entry or part of it): as the sequence (D3UD58 entry or part of it) above
T7 sequence (A0A0A0MP61 entry or part of it): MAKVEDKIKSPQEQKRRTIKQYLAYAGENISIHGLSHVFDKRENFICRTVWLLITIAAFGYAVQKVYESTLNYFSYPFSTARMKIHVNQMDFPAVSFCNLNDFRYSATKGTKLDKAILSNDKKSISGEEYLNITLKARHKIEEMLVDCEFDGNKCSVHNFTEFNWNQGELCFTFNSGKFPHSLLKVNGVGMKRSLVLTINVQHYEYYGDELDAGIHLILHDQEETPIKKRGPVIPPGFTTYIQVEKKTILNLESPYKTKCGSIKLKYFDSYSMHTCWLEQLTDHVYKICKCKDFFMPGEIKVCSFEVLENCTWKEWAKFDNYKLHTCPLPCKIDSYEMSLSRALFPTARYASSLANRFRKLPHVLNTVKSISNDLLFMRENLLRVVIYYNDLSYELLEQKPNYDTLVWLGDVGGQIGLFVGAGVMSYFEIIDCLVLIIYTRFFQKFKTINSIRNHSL
T7 sequence (A0A0A0MP73 entry or part of it): as the sequence (A0A0A0MP73 entry or part of it) above
T7 sequence (A8DZR6 entry or part of it): as the sequence (A8DZR6 entry or part of it) above
T5 sequence (A0A0A0MP48 entry or part of it): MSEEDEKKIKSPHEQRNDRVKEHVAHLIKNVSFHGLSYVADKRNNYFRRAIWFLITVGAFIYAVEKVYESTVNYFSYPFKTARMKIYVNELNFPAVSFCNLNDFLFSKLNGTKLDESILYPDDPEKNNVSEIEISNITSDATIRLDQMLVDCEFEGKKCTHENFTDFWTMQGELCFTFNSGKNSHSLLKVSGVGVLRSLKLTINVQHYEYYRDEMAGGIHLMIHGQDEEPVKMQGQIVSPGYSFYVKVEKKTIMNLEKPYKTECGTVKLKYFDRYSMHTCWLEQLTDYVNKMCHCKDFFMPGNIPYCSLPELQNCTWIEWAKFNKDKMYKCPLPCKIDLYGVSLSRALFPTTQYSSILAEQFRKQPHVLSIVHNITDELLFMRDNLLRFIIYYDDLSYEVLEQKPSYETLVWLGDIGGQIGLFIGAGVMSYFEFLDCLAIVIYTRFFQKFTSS
T5 sequence (A8DZR6 entry or part of it): as the sequence (A8DZR6 entry or part of it) above
T5 sequence (A0A0A0MP73 entry or part of it): as the sequence (A0A0A0MP73 entry or part of it) above
T2 sequence (A0A0A0MP54 entry or part of it): as the sequence (A0A0A0MP54 entry or part of it) above
T2 sequence (A8DZR7 entry or part of it): as the sequence (A8DZR7 entry or part of it) above
T2 sequence (A8DZR6 entry or part of it): as the sequence (A8DZR6 entry or part of it) above

N=C(N)NC(=O)c1nc(Cl)c(N)nc1N [amiloride]
remaining activity at 100 µM (HyNaC2/3/7 [1]): 30 ± 10%
remaining activity at 100 µM (HyNaC2/3/6 [2]): 30 ± 10%
remaining activity at 100 µM (HyNaC2/3/5 [3]): 50 ± 10%
IC50 (HyNaC2/3/5 [4]): ~120 µM
remaining activity at 100 µM (HyNaC2/4/6 [5]): 30 ± 10%
feeding reaction of living Hydra (Hydra magnipapillata): delays the feeding reaction
remaining activity at 100 µM (HyNaC2/9/7 [6]): 30 ± 10%
remaining activity at 100 µM (HyNaC2/11/5 [7]): 70 ± 10%
remaining activity at 100 µM (HyNaC2/10/7 [8]): 80 ± 10%

Hydra-RFamide I
Imax RFa I, current amplitude at maximal concentration of Hydra-RFamide I (HyNaC2/3/5 [9]; EGTA-injected oocytes): 9.2 ± 1.9 μA and 9.2 ± 1.9 (9) μA
EC50 (HyNaC2/3/5 [9]; [19]): 3.48 ± 0.55 µM
Hill Coeff. (HyNaC2/3/5 [9]; [20]): 1.2 ± 0.1
EC50 (HyNaC2/4/6 [10]; EGTA-injected oocytes): 0.7 ± 0.08 µM
Hill Coeff. (HyNaC2/4/6 [10]; [20]): 1.3 ± 0.1
EC50 (HyNaC2/3/7 [11]; EGTA-injected oocytes): 0.19 ± 0.04 µM
Imax RFa I, current amplitude at maximal concentration of Hydra-RFamide I (HyNaC2/3/7 [11]; EGTA-injected oocytes): 19.6 ± 1.8 μA and 19.6 ± 1.8 (14) μA
Hill Coeff. (HyNaC2/3/7 [11]; [20]): 1.6 ± 0.4
EC50 (HyNaC2/10/7 [12]): > 30 µM
EC50 RFa I (HyNaC2/10/7 [12]): too low to calculate the EC50 precisely
EC50 (HyNaC2/3/5 [13]): ~5 µM
EC50 (HyNaC2/9/7 [14]; [19]): 0.04 ± 0.01 µM
Hill Coeff. (HyNaC2/9/7 [14]; [20]): 1.5 ± 0.3
activation of channels containing HyNaC12 [15]: In no case did this result in channels that could be activated
EC50 (HyNaC2/11/5 [16]; [19]): 13.8 ± 1.9 µM
Hill Coeff. (HyNaC2/11/5 [16]; [20]): 0.9 ± 0.1
EC50 (HyNaC2/3/6 [17]; EGTA-injected oocytes): 0.29 ± 0.06 µM
Imax RFa I, current amplitude at maximal concentration of Hydra-RFamide I (HyNaC2/3/6 [17]; EGTA-injected oocytes): 15.7 ± 3.2 μA and 15.7 ± 3.2 (10) μA
Hill Coeff. (HyNaC2/3/6 [17]; [20]): 1.2 ± 0.2
activation of functional HyNaC heterotrimers (current elicited) [18]: activation of HyNaCs
activation of HyNaC2/9/5 (HyNaC2/9/5): insensitive; also recorded: not activated
